Source: patent US20240376126A1, “PRMT5 INHIBITOR AND THE USE THEREOF” (CYTOSINLAB THERAPEUTICS CO., LTD., priority 2022, published 2024)
pIC50: −log10 of the molar value.

Columns and labels:
[1] = tested on: HCT116 MTAP WT cells; assay: Proliferation inhibition of HCT116 cells in vitro (CellTiter Glo, 6 days); assay type: cell-based; settings: Homo sapiens, HCT-116, 144 h, read-out: Cell proliferation inhibition rate HCT116 MTAP WT IC50 (nm)
[2] = tested on: HCT116-MTAP-KO (MTAP null) cells; assay: Proliferation inhibition of HCT116 MTAP-KO cells in vitro (CellTiter Glo, 6 days); assay type: cell-based; settings: HCT116-MTAP null, 144 h, read-out: Cell proliferation inhibition rate HCT116-MTAP null IC50 (nm)

SMILES	pIC50 [1]	pIC50 [2]
Cc1ncc2c(N)nc3cc(F)c(C(=O)N(Cc4nc5ccccn5c4F)CC(C)C)cc3n12 [Example 194]	5.00 to 6.00	> 7.00
CCN(Cc1cn2ccccc2n1)C(=O)c1ccc2nc(N)c3cnn(C)c3c2c1 [Example 18]	5.00 to 6.00	> 7.00
Cn1cc(N(Cc2cn3ccccc3n2)C(=O)c2cc3c(cc2F)nc(N)c2cnn(C)c23)cn1 [Example 14]	5.00 to 6.00	> 7.00
Cc1cc(N(Cc2cn3cc(C(F)(F)F)ccc3n2)C(=O)c2ccc3nc(N)c4c(c3c2)COC4)n(C)n1 [Example 98]	5.00 to 6.00	> 7.00
Cc1cn2c(n1)c(N)nc1ccc(C(=O)N3C(C)COC[C@@H]3c3cn4ccccc4n3)cc12 (stereo partly drawn) [Example 168]	5.00 to 6.00	6.00 to 7.00
Cc1ncc2c(N)nc3cc(F)c(C(=O)N(Cc4cn5cc(C(F)(F)F)ccc5n4)c4ccnn4C(F)F)cc3n12 [Example 246]	5.00 to 6.00	> 7.00
COCC(C1CC1)N(Cc1nc2cc(C(F)(F)F)ccc2s1)C(=O)c1ccc2nc(N)c(C)cc2c1 (stereo not drawn) [Example 150]	5.00 to 6.00	6.00 to 7.00
COC1CC(N(Cc2cn3ccccc3n2)C(=O)c2cc3c(cc2F)nc(N)c2cnc(C)n23)C1 (stereo not drawn) [Example 177]	5.00 to 6.00	6.00 to 7.00
Cc1ccc2nc(CN(C(=O)c3ccc4nc(N)c5c(c4c3)COC5C)c3cnn(C)c3)cn2c1 (stereo not drawn) [Example 75]	5.00 to 6.00	> 7.00
CC(c1cn2ccccc2n1)N(C(=O)c1cc2c(cc1F)nc(N)c1cnn(C)c12)C12CC(C1)C2 (stereo not drawn) [Example 31]	5.00 to 6.00	> 7.00
CC1COCC(c2cn3ccccc3n2)N1C(=O)c1ccc2nc(N)c3c(cnn3C)c2c1 (stereo not drawn) [Example 25]	5.00 to 6.00	6.00 to 7.00
CCN(C(=O)c1cc2c(cc1F)nc(N)c1cnc(C)n12)C(C)c1cn2ccccc2n1 (stereo not drawn) [Example 163]	5.00 to 6.00	6.00 to 7.00
CC1OCc2c1c(N)nc1ccc(C(=O)N(Cc3cn4cc(C(F)(F)F)ccc4n3)c3cnn(C)c3)cc21 (stereo not drawn) [Example 42, 4-Amino-3-methyl-N-(1-methyl-1H-pyrazol-4-yl)-N-((6-(trifluoromethyl)imidazolo[1,2-a]pyridin-2-yl)methyl)-1,3-dihydrofurano[3,4-c]quinolin-8-carboxamide]	5.00 to 6.00	> 7.00

Second part, the molecule after the results:

pIC50 [1]	pIC50 [2]	SMILES
5.00 to 6.00	6.00 to 7.00	Cc1ncc2c(N)nc3ccc(C(=O)N(Cc4nc5cnccc5s4)CC(C)C)cc3n12 [Example 160]
5.00 to 6.00	6.00 to 7.00	Cc1nc(C)n2c1c(N)nc1cc(F)c(C(=O)N(Cc3cn4ccccc4n3)CC(C)C)cc12 [Example 162]
6.00 to 7.00	> 7.00	CC(C)CN(Cc1cn2cc(C#N)ccc2n1)C(=O)c1cc2c(cc1F)nc(N)c1cnn(C)c12 [Example 20]
5.00 to 6.00	6.00 to 7.00	COCCN(C(=O)c1cc2c(cc1F)nc(N)c1cnc(C)n12)C(C)c1cn2ccccc2n1 (stereo not drawn) [Example 171]
5.00 to 6.00	6.00 to 7.00	CC(C)CN(Cc1cn2ccccc2n1)C(=O)c1ccc2nc(N)c3c(c2c1)CO[C@@H]3C [Example 54]
5.00 to 6.00	6.00 to 7.00	CCN(C(=O)c1cc2c(cc1F)nc(N)c1c(C)ncn12)C1COc2cc(-c3cccnc3)ccc21 (stereo not drawn) [Example 223]
5.00 to 6.00	6.00 to 7.00	CCN(C(=O)c1cc2c(cc1F)nc(N)c1c(C)ncn12)C1COc2cc(Br)cnc21 (stereo not drawn) [Example 228]
6.00 to 7.00	> 7.00	Cc1ncc2c(N)nc3cc(F)c(C(=O)N4C(C)COC[C@@H]4c4cn5cc(C(F)(F)F)ccc5n4)cc3n12 (stereo partly drawn) [Example 172]
> 7.00	> 7.00	Cc1nn(C)cc1N(Cc1cc2ccc(C(F)(F)F)cn2n1)C(=O)c1cc2c(cc1F)nc(N)c1c(C)ncn12 [Example 235]
6.00 to 7.00	> 7.00	CC1COCC(c2cn3ccccc3n2)N1C(=O)c1cc2c(cc1F)nc(N)c1cnn(C)c12 (stereo not drawn) [Example 19]
6.00 to 7.00	> 7.00	Cc1nn(C)cc1N(Cc1cn2cc(C(F)(F)F)ccc2n1)C(=O)c1ccc2nc(N)c3c(c2c1)CO[C@H]3C [Example 90]
